Measured values from US20220024945A1, “THERAPEUTIC COMPOUNDS AND COMPOSITIONS, AND METHODS OF USE THEREOF” (Genentech, Inc., priority 2017, published 2022).
pIC50, pKi: −log10 of the molar value.

How the values were obtained:
[1] = molecular target: isolated recombinant JAK2 kinase domain (Homo sapiens, UniProt O60674); assay: JAK enzyme assay (Caliper LabChip), JAK2 kinase domain; conditions: ATP 25 μM, 0.2 nM JAK2, Morrison tight binding model
Description: JAK Enzyme Assays were Carried Out as Follows:
The activity of the isolated recombinant JAK1 and JAK2 kinase domain was measured by monitoring phosphorylation of a peptide derived from JAK3 ([sequence] fluorescently labeled on the N-terminus with 5-carboxyfluorescein) using the Caliper LabChip® technology (Caliper Life Sciences, Hopkinton, Mass.). […] Reactions were incubated at 22° C. in 384-well polypropylene microtiter plates for 30 minutes and then stopped by addition of 25 μL of an EDTA containing solution (100 mM HEPES buffer (pH 7.2), 0.015% Brij-35, 150 mM EDTA), resulting in a final EDTA concentration of 50 mM. After termination of the kinase reaction, the proportion of phosphorylated product was determined as a fraction of total peptide substrate using the Caliper LabChip® 3000 according to the manufacturer's specifications.

[2] = system: JAK1-dependent STAT6 phosphorylation downstream of IL-13 stimulation, BEAS-2B cells; assay: JAK1 pathway assay in cell lines: P-STAT6 in BEAS-2B cells + IL13; type: cell-based; conditions: Homo sapiens, BEAS-2B, 1 h, BEAS-2B human bronchial epithelial cells, 1 hr compound preincubation, read-out: P-STAT6 BEAS2B + IL13 IC50
Description: JAK1 Pathway Assay in Cell Lines was Carried Out as Follows:
Inhibitor potency (EC50) was determined in cell-based assays designed to measure JAK1 dependent STAT phosphorylation. As noted above, inhibition of IL-4, IL-13, and IL-9 signaling by blocking the Jak/Stat signaling pathway can alleviate asthmatic symptoms in pre-clinical lung inflammation models (Mathew et al., 2001, J Exp Med 193(9): 1087-1096; Kudlacz et. al., 2008, Eur J. Pharmacol 582(1-3): 154-161).
In one assay approach, TF-1 human erythroleukemia cells obtained from the American Type Culture Collection (ATCC; Manassas, Va.) were used to measure JAK1-dependent STAT6 phosphorylation downstream of IL-13 stimulation. Prior to use in the assays, TF-1 cells were starved of GM-CSF overnight in OptiMEM medium (Life Technologies, Grand Island, N.Y.) supplemented with 0.5% charcoal/dextran stripped fetal bovine serum (FBS), 0.1 mM non-essential amino acids (NEAA), and 1 mM sodium pyruvate. The assays were run in 384-well plates in serum-free OptiMEM medium using 300,000 cells per well. In a second assay approach, BEAS-2B human bronchial epithelial cells obtained from ATCC were plated at 100,000 cells per well of a 96-well plate one day prior to the experiment. The BEAS-2B assay was run in complete growth medium (bronchial epithelial basal medium plus bulletkit; Lonza; Basel, Switzerland).
Test compounds were serially diluted 1:2 in DMSO and then diluted 1:50 in medium just before use. Diluted compounds were added to the cells, for a final DMSO concentration of 0.2%, and incubated for 30 m (for the TF-1 assay) or 1 hr (for the BEAS-2B assay) at 37° C. Then, cells were stimulated with human recombinant cytokine at their respective EC90 concentrations, as previously determined for each individual lot. Cells were stimulated with […] (R&D Systems, Minneapolis, Minn.) for 15 m/at 37° C. The TF-1 cell reactions were stopped by the direct addition of 10× lysis buffer (Cell Signaling Technologies, Danvers, Mass.), whereas the BEAS-2B cell incubations were halted by the removal of medium and addition of 1× lysis buffer. The resultant samples were frozen in the plates at −80° C. Compound mediated inhibition of STAT6 phosphorylation was measured in the cell lysates using MesoScale Discovery (MSD) technology (Gaithersburg, Md.). EC50 values were determined as the concentration of compound required for 50% inhibition of STAT phosphorylation relative to that measured for the DMSO control.

[3] = molecular target: isolated recombinant JAK1 kinase domain (Homo sapiens, UniProt P23458); assay: JAK enzyme assay (Caliper LabChip), JAK1 kinase domain; type: biochemical; conditions: ATP 25 μM; 1.5 nM JAK1; Morrison tight binding model
isolated recombinant JAK1 kinase domain, sequence (P23458 875-1153 limits assumed): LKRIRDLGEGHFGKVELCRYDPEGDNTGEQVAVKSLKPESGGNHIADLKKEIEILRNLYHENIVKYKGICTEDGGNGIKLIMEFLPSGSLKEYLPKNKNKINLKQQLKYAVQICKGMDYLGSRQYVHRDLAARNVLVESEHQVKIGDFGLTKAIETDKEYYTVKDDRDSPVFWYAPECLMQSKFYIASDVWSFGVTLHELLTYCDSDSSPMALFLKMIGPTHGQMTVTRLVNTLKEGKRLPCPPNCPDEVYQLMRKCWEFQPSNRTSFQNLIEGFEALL

isolated recombinant JAK2 kinase domain, sequence (O60674 849-1124 limits assumed): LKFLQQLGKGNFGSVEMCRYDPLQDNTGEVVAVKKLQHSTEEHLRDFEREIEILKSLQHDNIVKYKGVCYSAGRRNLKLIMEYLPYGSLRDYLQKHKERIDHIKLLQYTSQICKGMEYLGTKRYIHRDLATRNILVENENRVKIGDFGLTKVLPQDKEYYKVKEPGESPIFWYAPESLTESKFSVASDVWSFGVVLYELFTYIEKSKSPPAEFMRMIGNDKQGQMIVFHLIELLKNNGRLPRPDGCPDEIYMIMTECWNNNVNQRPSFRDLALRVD

SMILES | pKi [1] | pKi [3] | pIC50 [2]
O=C(Nc1c[nH]nc1-c1cc(SCC(F)(F)F)ccc1OC(F)F)c1cnn2cccnc12 [Example 3, N-[3-[2-(difluoromethoxy)-5-(2,2,2-trifluoroethylsulfanyl)phenyl]-1H-pyrazol-4-yl]pyrazolo[1,5-a]pyrimidine-3-carboxamide] | 9.92 | 9.80 | 8.00
CC(CO)Sc1ccc(OC(F)F)c(-c2n[nH]cc2NC(=O)c2cnn3cccnc23)c1 (stereo not drawn) [Example 4, N-[3-[2-(difluoromethoxy)-5-(2-hydroxy-1-methyl-ethyl)sulfanyl-phenyl]-1H-pyrazol-4-yl]pyrazolo[1,5-a]pyrimidine-3-carboxamide] | 9.82 | 9.64 | 7.46
O=C(Nc1c[nH]nc1-c1cc(SC(F)(F)F)ccc1OC(F)F)c1cnn2cccnc12 [Example 5, N-[3-[2-(difluoromethoxy)-5-(trifluoromethylsulfanyl)phenyl]-1H-pyrazol-4-yl]pyrazolo[1,5-a]pyrimidine-3-carboxamide] | 9.68 | 9.30 | 8.22
CN(C1CCN(C(=O)Cn2cc(NC(=O)c3cnn4cccnc34)c(-c3cc(SC4CCOCC4)ccc3OC(F)F)n2)CC1)C1COC1 [Example 6, N-[3-[2-(difluoromethoxy)-5-tetrahydropyran-4-ylsulfanyl-phenyl]-1-[2-[44-[methyl(oxetan-3-yl)amino]-1-piperidyl]-2-oxo-ethyl]pyrazol-4-yl]pyrazolo[1,5-a]pyrimidine-3-carboxamide] | 8.53 | 9.01 | 6.56
O=C(Nc1c[nH]nc1-c1cc(SC2CCCC2)ccc1OC(F)F)c1cnn2cccnc12 [Example 7, N-[3-[5-cyclopentylsulfanyl-2-(difluoromethoxy)phenyl]-1H-pyrazol-4-yl]pyrazolo[1,5-a]pyrimidine-3-carboxamide] | 9.43 | 9.12 | 7.92
O=C(Nc1c[nH]nc1-c1cc(SC2CCC2)ccc1OC(F)F)c1cnn2cccnc12 [Example 9, N-[3-[5-cyclobutylsulfanyl-2-(difluoromethoxy)phenyl]-1H-pyrazol-4-yl]pyrazolo[1,5-a]pyrimidine-3-carboxamide] | 9.85 | 9.64 | 8.15
CC(C)Sc1ccc(OC(F)F)c(-c2nn(CCO)cc2NC(=O)c2cnn3cccnc23)c1 [Example 10, N-[3-[2-(difluoromethoxy)-5-isopropylsulfanyl-phenyl]-1-(2-hydroxyethyl)pyrazol-4-yl]pyrazolo[1,5-a]pyrimidine-3-carboxamide] | 9.62 | 9.24 | 7.77
O=C(Nc1cn(Cc2cn(C3CCN(C4COC4)CC3)nn2)nc1-c1cc(SC2COC2)ccc1OC(F)F)c1cnn2cccnc12 [Example 17, N-[3-[2-(difluoromethoxy)-5-(oxetan-3-ylsulfanyl)phenyl]-1-[[1-[1-(oxetan-3-yl)-4-piperidyl]triazol-4-yl]methyl]pyrazol-4-yl]pyrazolo[1,5-a]pyrimidine-3-carboxamide] | 9.24 | 9.09 | 6.89
COC(=O)N1CCN(CC2CCN(C(=O)Cn3cc(NC(=O)c4cnn5cccnc45)c(-c4cc(SC(CF)CF)ccc4OC(F)F)n3)CC2)CC1 [Example 18] | 8.89 | 9.40 | 7.48
CSc1ccc(OC(F)F)c(-c2nn(CC(C)(C)O)cc2NC(=O)c2cnn3cccnc23)c1 [Example 19, N-[3-[2-(difluoromethoxy)-5-methylsulfanyl-phenyl]-1-(2-hydroxy-2-methyl-propyl)pyrazol-4-yl]pyrazolo[1,5-a]pyrimidine-3-carboxamide] | 9.32 | 9.44 | 7.82
O=C(Nc1cn(CCO)nc1-c1cc(SC(CF)CF)ccc1OC(F)F)c1cnn2cccnc12 [Example 22, N-[3-[2-(difluoromethoxy)-5-[2-fluoro-1-(fluoromethyl)ethyl]sulfanyl-phenyl]-1-(2-hydroxyethyl)pyrazol-4-yl]pyrazolo[1,5-a]pyrimidine-3-carboxamide] | 9.72 | 9.49 | 7.74
CSc1ccc(OC(F)F)c(-c2nn(CC(=O)N3CCC(O)CC3)cc2NC(=O)c2cnn3cccnc23)c1 [Example 23, N-[3-[2-(difluoromethoxy)-5-methylsulfanyl-phenyl]-1-[2-(4-hydroxy-1-piperidyl)-2-oxo-ethyl]pyrazol-4-yl]pyrazolo[1,5-a]pyrimidine-3-carboxamide] | 9.26 | 9.46 | 7.33
O=C(Nc1cn(C2COC2)nc1-c1cc(SC2COC2)ccc1OC(F)F)c1cnn2cccnc12 [Example 24, N-[3-[2-(difluoromethoxy)-5-(oxetan-3-ylsulfanyl)phenyl]-1-(oxetan-3-yl)pyrazol-4-yl]pyrazolo[1,5-a]pyrimidine-3-carboxamide] | 9.66 | 9.34 | 7.77

The next lines start with results.

pKi [1] | pKi [3] | SMILES | pIC50 [2]
9.23 | 9.55 | O=C(Nc1cn(CC(=O)N2CC=CCC2)nc1-c1cc(SC2COC2)ccc1OC(F)F)c1cnn2cccnc12 [Example 25, N-[3-[2-(difluoromethoxy)-5-(oxetan-3-ylsulfanyl)phenyl]-1-[2-(3,6-dihydro-2H-pyridin-1-yl)-2-oxo-ethyl]pyrazol-4-yl]pyrazolo[1,5-a]pyrimidine-3-carboxamide] | 7.85
9.03 | 9.49 | CN(C)C(=O)Cn1cc(NC(=O)c2cnn3cccnc23)c(-c2cc(SC3COC3)ccc2OC(F)F)n1 [Example 26, N-[3-[2-(difluoromethoxy)-5-(oxetan-3-ylsulfanyl)phenyl]-1-[2-(dimethylamino)-2-oxo-ethyl]pyrazol-4-yl]pyrazolo[1,5-a]pyrimidine-3-carboxamide] | 7.47
10.00 | 9.54 | CSc1ccc(OC(F)F)c(-c2nn(CC(N)=O)cc2NC(=O)c2cnn3cccnc23)c1 [Example 27, N-[1-(2-amino-2-oxo-ethyl)-3-[2-(difluoromethoxy)-5-methylsulfanyl-phenyl]pyrazol-4-yl]pyrazolo[1,5-a]pyrimidine-3-carboxamide] | 7.92
9.02 | 9.39 | O=C(Nc1cn(CC(=O)N2CCCCC2)nc1-c1cc(SC2COC2)ccc1OC(F)F)c1cnn2cccnc12 [Example 28, N-[3-[2-(difluoromethoxy)-5-(oxetan-3-ylsulfanyl)phenyl]-1-[2-oxo-2-(1-piperidyl)ethyl]pyrazol-4-yl]pyrazolo[1,5-a]pyrimidine-3-carboxamide] | 7.62
9.41 | 9.60 | CSc1ccc(OC(F)F)c(-c2nn(CC(=O)N3CCCCC3)cc2NC(=O)c2cnn3cccnc23)c1 [Example 29] | 7.85
10.05 | 9.80 | O=C(Nc1c[nH]nc1-c1cc(SC(F)F)ccc1OC(F)F)c1cnn2cccnc12 [Example 30, N-[3-[2-(difluoromethoxy)-5-(difluoromethylsulfanyl)phenyl]-1H-pyrazol-4-yl]pyrazolo[1,5-a]pyrimidine-3-carboxamide] | 8.30
9.29 | 9.46 | CNC(=O)Cn1cc(NC(=O)c2cnn3cccnc23)c(-c2cc(SC(F)F)ccc2OC(F)F)n1 [Example 32, N-[3-[2-(difluoromethoxy)-5-(difluoromethylsulfanyl)phenyl]-1-[2-(methylamino)-2-oxo-ethyl]pyrazol-4-yl]pyrazolo[1,5-a]pyrimidine-3-carboxamide] | 7.85
